Measured values: patent publication US9624170B2, “4-(piperrazin-1-yl)-pyrrolidin-2-one compounds as monoacylglycerol lipase (MAGL) inhibitors” (TAKEDA PHARMACEUTICAL COMPANY LIMITED, priority 2013, dated 2017)

Each compound was assayed against T1, human MAGL (His-hMAGL) (Homo sapiens, UniProt Q99685) (assay: Measurement of MAGL inhibitory activity by mass spectrometry). Conditions: 10 μM test compound; substrate 2-arachidonylglycerol, arachidonic acid by RapidFire-mass spectrometry.
T1 construct: made in house; host or cells: Escherichia coli BL21(DE3)
T1 sequence (Q99685 1-303): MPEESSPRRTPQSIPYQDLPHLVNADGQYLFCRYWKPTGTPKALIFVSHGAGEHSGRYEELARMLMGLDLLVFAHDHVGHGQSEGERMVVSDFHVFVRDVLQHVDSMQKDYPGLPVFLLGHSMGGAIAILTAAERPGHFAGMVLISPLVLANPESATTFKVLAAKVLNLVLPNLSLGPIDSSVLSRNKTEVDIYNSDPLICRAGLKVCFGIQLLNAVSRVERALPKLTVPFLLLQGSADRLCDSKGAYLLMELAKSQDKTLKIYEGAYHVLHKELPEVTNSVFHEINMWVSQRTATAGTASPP
Format: biochemical
Protocol: Thereafter, to each well was added 150 μM 2-arachidonylglycerol (Tocris Bioscience) by 5 μL, and the mixture was incubated at room temperature for 10 min. Then, 2% formic acid (Wako Pure Chemical Industries, Ltd.) was added by 10 μL to discontinue the reaction. Furthermore, acetonitrile (50 μL) containing 3 μM arachidonic acid-d8 (Cayman Chemical Company) was added and the mixture was stirred. The amount of arachidonic acid in the obtained enzyme reaction mixture was calculated by measuring by RapidFire-mass spectrometry and correcting by the amount of arachidonic acid-d8. High Throughput online solid phase extraction was performed using RapidFire 300TM system (Agilent Technologies, Inc.). […] The injection needle was washed with ultrapure water (500 millisecond) and acetonitrile (500 millisecond) to minimize carry-over. […] The RapidFire300 system was controlled by RapidFire UI software version 3.6 (Agilent Technologies, Inc.). The mass spectrometry of the resultant product was performed using […] triple quadrupole mass spectrometer (AB SCIEX) equipped with an electrospray ion sauce (Turbolon SprayTM) in a negative selected reaction monitoring (SRM) mode. The conditions of SRM are shown below. The parameters of the instrument were optimized as follows: capillary temperature 600° C., ion spray voltage -4.5 kV, collision gas 8, curtain gas 15 psi, ion source gas 1 60 psi, ion source gas 2 60 psi. The mass spectrometer was controlled by AnalystTM software version 1.5.1 (AB SCIEX). The peak area integration was analyzed using RapidFire integrator software version 3.6 (Agilent Technologies, Inc.). MAGL inhibitory rate (%) was calculated according to the following calculation formula.

Row | SMILES | inhibition at 10 µM
1 | Cc1ccc(-c2cccc(N3CC(N4CCN(C(=O)c5nccs5)CC4)CC3=O)c2)cc1 (centres unmarked) [Example 90, 1-(4′-methylbiphenyl-3-yl)-4-(4-(1,3-thiazol-2-ylcarbonyl)piperazin-1-yl)pyrrolidin-2-one] | 102%
2 | Cc1cccc(-c2cccc(N3CC(N4CCN(C(=O)c5nccs5)CC4)CC3=O)c2)c1 (centres unmarked) [Example 91, 1-(3′-methylbiphenyl-3-yl)-4-(4-(1,3-thiazol-2-ylcarbonyl)piperazin-1-yl)pyrrolidin-2-one] | 102%
3 | O=C(c1nccs1)N1CCN(C2CC(=O)N(c3cccc(-c4cccs4)c3)C2)CC1 (centres unmarked) [Example 93, 4-(4-(1,3-thiazol-2-ylcarbonyl)piperazin-1-yl)-1-(3-(2-thienyl)phenyl)pyrrolidin-2-one] | 101%
4 | O=C(c1nccs1)N1CCN(C2CC(=O)N(c3cccc(-c4ccsc4)c3)C2)CC1 (centres unmarked) [Example 94, 4-(4-(1,3-thiazol-2-ylcarbonyl)piperazin-1-yl)-1-(3-(3-thienyl)phenyl)pyrrolidin-2-one] | 99%
5 | CC(=O)Nc1cccc(-c2cccc(N3CC(N4CCN(C(=O)c5nccs5)CC4)CC3=O)c2)c1 (centres unmarked) [Example 95, N-(3′-(2-oxo-4-(4-(1,3-thiazol-2-ylcarbonyl)piperazin-1-yl)pyrrolidin-1-yl)biphenyl-3-yl)acetarnide] | 99%
6 | O=C(c1nccs1)N1CCN(C2CC(=O)N(c3cccc(-c4ccoc4)c3)C2)CC1 (centres unmarked) [Example 96, 1-(3-(3-furyl)phenyl)-4-(4-(1,3-thiazol-2-ylcarbonyl)piperazin-1-yl)pyrrolidin-2-one] | 99%
7 | CC(=O)Nc1ccc(-c2cccc(N3CC(N4CCN(C(=O)c5nccs5)CC4)CC3=O)c2)cc1 (centres unmarked) [Example 97, N-(3′-(2-oxo-4-(4-(1,3-thiazol-2-ylcarbonyl)piperazin-1-yl)pyrrolidin-1-yl)biphenyl-4-yl)acetarnide] | 97%
8 | NC(=O)c1cccc(-c2cccc(N3CC(N4CCN(C(=O)c5nccs5)CC4)CC3=O)c2)c1 (centres unmarked) [Example 98, 3′-(2-oxo-4-(4-(1,3-thiazol-2-ylcarbonyl)piperazin-1-yl)pyrrolidin-1-yl)biphenyl-3-carboxamide] | 100%
9 | O=C(c1nccs1)N1CCN(C2CC(=O)N(c3cccc(Cc4ccccc4)c3)C2)CC1 (centres unmarked) [Example 99, 1-(3-benzylphenyl)-4-(4-(1,3-thiazol-2-ylcarbonyl)piperazin-1-yl)pyrrolidin-2-one] | 102%
10 | CS(=O)(=O)Nc1cccc(-c2cccc(N3CC(N4CCN(C(=O)c5nccs5)CC4)CC3=O)c2)c1 (centres unmarked) [Example 100, N-(3′-(2-oxo-4-(4-(1,3-thiazol-2-ylcarbonyl)piperazin-1-yl)pyrrolidin-1-yl)biphenyl-3-yl)methanesulfonamide] | 101%
11 | Cn1nccc1-c1cccc(N2CC(N3CCN(C(=O)c4nccs4)CC3)CC2=O)c1 (centres unmarked) [Example 101, 1-(3-(1-methyl-1H-pyrazol-5-yl)phenyl)-4-(4-(1,3-thiazol-2-ylcarbonyl)piperazin-1-yl)pyrrolidin-2-one] | 99%
12 | NS(=O)(=O)c1ccc(-c2cccc(N3CC(N4CCN(C(=O)c5nccs5)CC4)CC3=O)c2)cc1 (centres unmarked) [Example 102, 3′-(2-oxo-4-(4-(1,3-thiazol-2-ylcarbonyl)piperazin-1-yl)pyrrolidin-1-yl)biphenyl-4-sulfonamide] | 96%
13 | NS(=O)(=O)c1cccc(-c2cccc(N3CC(N4CCN(C(=O)c5nccs5)CC4)CC3=O)c2)c1 (centres unmarked) [Example 103, 3′-(2-oxo-4-(4-(1,3-thiazol-2-ylcarbonyl)piperazin-1-yl)pyrrolidin-1-yl)biphenyl-3-sulfonamide] | 100%
14 | CNC(=O)c1ccc(-c2cccc(N3CC(N4CCN(C(=O)c5nccs5)CC4)CC3=O)c2)cc1 (centres unmarked) [Example 104, N-methyl-3′-(2-oxo-4-(4-(1,3-thiazol-2-ylcarbonyl)piperazin-1-yl)pyrrolidin-1-yl)biphenyl-4-carboxamide] | 95%
